The source of these data is publication PMC6469940 (Science Advances, 2019).

The target in this experiment is T1, hM4D(Gi) (human M4 muscarinic receptor-based DREADD) (Homo sapiens, UniProt P08173, A203G/Y113C).
T1 construct: gene CHRM4; hM4D(Gi) plasmid (Addgene 45548)
T1 sequence (P08173 1-479 Y113C/A203G): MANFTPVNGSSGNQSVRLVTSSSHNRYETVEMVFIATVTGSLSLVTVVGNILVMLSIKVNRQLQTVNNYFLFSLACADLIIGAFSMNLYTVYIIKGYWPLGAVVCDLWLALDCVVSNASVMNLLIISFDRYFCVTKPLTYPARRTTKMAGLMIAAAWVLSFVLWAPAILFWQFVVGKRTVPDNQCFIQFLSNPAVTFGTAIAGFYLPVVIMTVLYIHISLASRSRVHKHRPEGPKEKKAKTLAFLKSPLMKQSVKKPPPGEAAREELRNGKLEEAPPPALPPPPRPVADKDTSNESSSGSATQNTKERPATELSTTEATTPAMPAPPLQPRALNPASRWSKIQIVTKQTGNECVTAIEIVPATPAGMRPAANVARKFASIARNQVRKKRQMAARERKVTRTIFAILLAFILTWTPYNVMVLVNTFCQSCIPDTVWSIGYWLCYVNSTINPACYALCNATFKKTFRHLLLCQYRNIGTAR
Kind of experiment: whole-cell patch clamp of Kir3.[…] current potentiation in HEK cells transfected with hM4D(Gi). Type of experiment: cell-based. In general terms: The patch-clamp technique gives a direct electrical read-out from membranes.

The term EC50 denotes the concentration that produces a half-maximal response. As for `c1ccc2c(c1)N=C(N1CCNCC1)c1ccccc1N2` [C21, compound 21], the EC50 came out at 20 ± 4 nM.

For `CN1CCN(C2=Nc3ccccc3Cc3ccccc32)CC1` [PLP, perlapine], the concentration for a half-maximal effect (EC50) worked out at 40 ± 10 nM.
